# In PubChem BioAssay AID1259407 (Chemical Carcinogenesis Research Information System (CCRIS), 2018):
# The source made the active and inactive calls. No rule for the calls is given here.
# System: CCRIS mutagenicity, Ames/micronucleus/aberration tests
# Test: CCRIS mutagenicity studies
# [1] = Test System: AMES SALMONELLA TYPHIMURIUM, Strain/Indicator: TA98, Metabolic Activation: NONE, Method: STANDARD PLATE
# [2] = Test System: AMES SALMONELLA TYPHIMURIUM, Strain/Indicator: TA100, Metabolic Activation: NONE, Method: STANDARD PLATE
# [3] = Test System: AMES SALMONELLA TYPHIMURIUM, Strain/Indicator: TA98, Metabolic Activation: NONE, Method: PREINCUBATION
# [4] = Test System: AMES SALMONELLA TYPHIMURIUM, Strain/Indicator: TA98, Metabolic Activation: S-9, Method: STANDARD PLATE
# [5] = Test System: AMES SALMONELLA TYPHIMURIUM, Strain/Indicator: TA100, Metabolic Activation: NONE, Method: PREINCUBATION
# [6] = Test System: AMES SALMONELLA TYPHIMURIUM, Strain/Indicator: TA100, Metabolic Activation: S-9, Method: STANDARD PLATE
# [7] = Test System: AMES SALMONELLA TYPHIMURIUM, Strain/Indicator: TA102, Metabolic Activation: NONE, Method: PREINCUBATION
# [8] = Test System: AMES SALMONELLA TYPHIMURIUM, Strain/Indicator: TA102, Metabolic Activation: RAT, LIVER, S-9, AROCLOR 1254, Method: PREINCUBATION
smiles,measurement,setting,value
CCC1(C)CO1 (stereo not drawn),mutagenic call,[1],inactive; negative
same,mutagenic call,[2],inactive; negative
O=[N+]([O-])c1c2c3c(ccc4cccc(c43)CC2)c2ccccc12,mutagenic call,[1],active; positive
same,mutagenic call,[2],inactive; negative
O=C(c1ccccc1)[C@@H]1O[C@@H]1c1ccc(Br)cc1,mutagenic call,[1],inactive; negative
same,mutagenic call,"Test System: AMES SALMONELLA TYPHIMURIUM, Strain/Indicator: TA98, Metabolic Activation: RAT, LIVER, S-9, AROCLOR 1254, Method: STANDARD PLATE",inactive; negative
same,mutagenic call,[2],inactive; negative
same,mutagenic call,"Test System: AMES SALMONELLA TYPHIMURIUM, Strain/Indicator: TA100, Metabolic Activation: RAT, LIVER, S-9, AROCLOR 1254, Method: STANDARD PLATE",inactive; negative
Fc1cc2cccnc2c2ncccc12,mutagenic call,"Test System: AMES SALMONELLA TYPHIMURIUM, Strain/Indicator: TA100, Metabolic Activation: RAT, LIVER, S-9, PHENOBARBITAL AND 5,6-BENZOFLAVONE, Method: PREINCUBATION",active; positive
Cc1ccc(C=O)o1,mutagenic call,[3],inactive; negative
same,mutagenic call,[1],inactive; negative
same,mutagenic call,"Test System: AMES SALMONELLA TYPHIMURIUM, Strain/Indicator: TA98, Metabolic Activation: RAT, LIVER, S-9, AROCLOR 1254, Method: PREINCUBATION",inactive; negative
same,mutagenic call,[4],inactive; negative
same,mutagenic call,[5],inactive; negative
same,mutagenic call,[2],inactive; negative
same,mutagenic call,"Test System: AMES SALMONELLA TYPHIMURIUM, Strain/Indicator: TA100, Metabolic Activation: RAT, LIVER, S-9, AROCLOR 1254, Method: PREINCUBATION",inactive; negative
same,mutagenic call,[6],inactive; negative
same,mutagenic call,[7],inactive; negative
same,mutagenic call,[8],inactive; negative
O=C(OOC(=O)c1ccccc1)c1ccccc1,mutagenic call,"Test System: AMES SALMONELLA TYPHIMURIUM, Strain/Indicator: TA97, Metabolic Activation: HAMSTER, LIVER, S-9, AROCLOR 1254 (10 OR 30%), Method: PREINCUBATION",inactive; negative
same,mutagenic call,"Test System: AMES SALMONELLA TYPHIMURIUM, Strain/Indicator: TA97, Metabolic Activation: NONE, Method: PREINCUBATION",inactive; negative
same,mutagenic call,"Test System: AMES SALMONELLA TYPHIMURIUM, Strain/Indicator: TA97, Metabolic Activation: RAT, LIVER, S-9, AROCLOR 1254 (10 OR 30%), Method: PREINCUBATION",inactive; negative
same,mutagenic call,"Test System: AMES SALMONELLA TYPHIMURIUM, Strain/Indicator: TA97, Metabolic Activation: RAT, LIVER, S-9, AROCLOR 1254, Method: PREINCUBATION",inactive; negative
same,mutagenic call,"Test System: AMES SALMONELLA TYPHIMURIUM, Strain/Indicator: TA97A, Metabolic Activation: NONE, Method: PREINCUBATION",inactive; negative
same,mutagenic call,"Test System: AMES SALMONELLA TYPHIMURIUM, Strain/Indicator: TA97A, Metabolic Activation: RAT LIVER S-9, AROCLOR 1254, Method: PREINCUBATION",inactive; negative
same,mutagenic call,"Test System: AMES SALMONELLA TYPHIMURIUM, Strain/Indicator: TA98, Metabolic Activation: HAMSTER, LIVER, S-9, AROCLOR 1254 (10 OR 30%), Method: PREINCUBATION",inactive; negative
same,mutagenic call,[3],inactive; negative
same,mutagenic call,"Test System: AMES SALMONELLA TYPHIMURIUM, Strain/Indicator: TA98, Metabolic Activation: RAT LIVER S-9, PHENOBARBITAL AND BETA-NAPHTHOFLAVONE, Method: PREINCUBATION",inactive; negative
same,mutagenic call,"Test System: AMES SALMONELLA TYPHIMURIUM, Strain/Indicator: TA98, Metabolic Activation: RAT, LIVER, S-9, AROCLOR 1254 (10 OR 30%), Method: PREINCUBATION",inactive; negative
same,mutagenic call,"Test System: AMES SALMONELLA TYPHIMURIUM, Strain/Indicator: TA100, Metabolic Activation: HAMSTER, LIVER, S-9, AROCLOR 1254 (10 OR 30%), Method: PREINCUBATION",inactive; negative
same,mutagenic call,[5],inactive; negative
same,mutagenic call,"Test System: AMES SALMONELLA TYPHIMURIUM, Strain/Indicator: TA100, Metabolic Activation: RAT LIVER S-9, AROCLOR 1254, Method: PREINCUBATION",inactive; negative
same,mutagenic call,"Test System: AMES SALMONELLA TYPHIMURIUM, Strain/Indicator: TA100, Metabolic Activation: RAT LIVER S-9, PHENOBARBITAL AND BETA-NAPHTHOFLAVONE, Method: PREINCUBATION",inactive; negative
same,mutagenic call,"Test System: AMES SALMONELLA TYPHIMURIUM, Strain/Indicator: TA100, Metabolic Activation: RAT, LIVER, S-9, AROCLOR 1254 (10 OR 30%), Method: PREINCUBATION",inactive; negative
same,mutagenic call,[7],inactive; negative
same,mutagenic call,"Test System: AMES SALMONELLA TYPHIMURIUM, Strain/Indicator: TA102, Metabolic Activation: RAT LIVER S-9, AROCLOR 1254, Method: PREINCUBATION",inactive; negative
same,mutagenic call,[8],inactive; negative
same,mutagenic call,"Test System: AMES SALMONELLA TYPHIMURIUM, Strain/Indicator: TA104, Metabolic Activation: NONE, Method: PREINCUBATION",inactive; negative
same,mutagenic call,"Test System: AMES SALMONELLA TYPHIMURIUM, Strain/Indicator: TA104, Metabolic Activation: RAT LIVER S-9, AROCLOR 1254, Method: PREINCUBATION",inactive; negative
same,mutagenic call,"Test System: AMES SALMONELLA TYPHIMURIUM, Strain/Indicator: TA1535, Metabolic Activation: HAMSTER, LIVER, S-9, AROCLOR 1254 (10 OR 30%), Method: PREINCUBATION",inactive; negative
same,mutagenic call,"Test System: AMES SALMONELLA TYPHIMURIUM, Strain/Indicator: TA1535, Metabolic Activation: NONE, Method: PREINCUBATION",inactive; negative
same,mutagenic call,"Test System: AMES SALMONELLA TYPHIMURIUM, Strain/Indicator: TA1535, Metabolic Activation: RAT LIVER S-9, PHENOBARBITAL AND BETA-NAPHTHOFLAVONE, Method: PREINCUBATION",inactive; negative
same,mutagenic call,"Test System: AMES SALMONELLA TYPHIMURIUM, Strain/Indicator: TA1535, Metabolic Activation: RAT, LIVER, S-9, AROCLOR 1254 (10 OR 30%), Method: PREINCUBATION",inactive; negative
same,mutagenic call,"Test System: AMES SALMONELLA TYPHIMURIUM, Strain/Indicator: TA1537, Metabolic Activation: NONE, Method: PREINCUBATION",inactive; negative
same,mutagenic call,"Test System: AMES SALMONELLA TYPHIMURIUM, Strain/Indicator: TA1537, Metabolic Activation: RAT LIVER S-9, PHENOBARBITAL AND BETA-NAPHTHOFLAVONE, Method: PREINCUBATION",inactive; negative
same,mutagenic call,"Test System: E.COLI, Strain/Indicator: WP2UVRA/PKM101, Metabolic Activation: NONE, Method: PREINCUBATION",inactive; negative
same,mutagenic call,"Test System: E.COLI, Strain/Indicator: WP2UVRA/PKM101, Metabolic Activation: RAT LIVER S-9, PHENOBARBITAL AND BETA-NAPHTHOFLAVONE, Method: PREINCUBATION",inactive; negative
COc1cccc(/C=C/c2ccc([N+](=O)[O-])cc2)c1,mutagenic call,"Test System: AMES SALMONELLA TYPHIMURIUM, Strain/Indicator: TA98(NR), Metabolic Activation: NONE, Method: STANDARD PLATE",active; positive
same,mutagenic call,"Test System: AMES SALMONELLA TYPHIMURIUM, Strain/Indicator: TA98(NR), Metabolic Activation: S-9, Method: STANDARD PLATE",active; positive
same,mutagenic call,[1],active; positive
same,mutagenic call,[4],active; positive
same,mutagenic call,"Test System: AMES SALMONELLA TYPHIMURIUM, Strain/Indicator: TA100 (NR), Metabolic Activation: NONE, Method: STANDARD PLATE",active; positive
same,mutagenic call,"Test System: AMES SALMONELLA TYPHIMURIUM, Strain/Indicator: TA100 (NR), Metabolic Activation: S-9, Method: STANDARD PLATE",active; positive
same,mutagenic call,[2],active; positive
same,mutagenic call,[6],active; positive
O=Nc1c2ccccc2c2ccc3cccc4ccc1c2c43,mutagenic call,"Test System: AMES SALMONELLA TYPHIMURIUM, Strain/Indicator: TA97, Metabolic Activation: NONE, Method: STANDARD PLATE",active; positive
same,mutagenic call,"Test System: AMES SALMONELLA TYPHIMURIUM, Strain/Indicator: TA98 (1,8-DNP6), Metabolic Activation: NONE, Method: STANDARD PLATE",active; positive
same,mutagenic call,"Test System: AMES SALMONELLA TYPHIMURIUM, Strain/Indicator: TA98 (NR), Metabolic Activation: NONE, Method: STANDARD PLATE",active; positive
same,mutagenic call,"Test System: AMES SALMONELLA TYPHIMURIUM, Strain/Indicator: TA98, Metabolic Activation: NONE', Method: STANDARD PLATE",active; positive
same,mutagenic call,[1],active; positive
same,mutagenic call,[2],active; positive
same,mutagenic call,"Test System: AMES SALMONELLA TYPHIMURIUM, Strain/Indicator: TA104, Metabolic Activation: NONE, Method: STANDARD PLATE",active; positive
same,mutagenic call,"Test System: CHINESE HAMSTER OVARY, Strain/Indicator: CHO-K1-BH4 (HGPRT), Metabolic Activation: NONE",active; positive
